{"source": "patent US11666551B2", "about": "“Agent for reducing amount of amyloid β protein” (FUJIFILM Toyama Chemical Co., Ltd., priority 2017, dated 2023)", "format_in_all_cases": "in vivo, mild to moderate AD patients", "key": {"[1]": {"tested_on": "Aβ-38", "assay": "Phase II placebo-controlled trial, cerebrospinal fluid biomarker Aβ-38", "conditions": "for Change in Aβ-38 in CSF at week 52, difference from placebo group: analysis of covariance", "text": "[The procedure below names another target; the source lists this target under the same test.] (§1) Maleate of Compound A was used as the test compound. • Test Example 1 Multicenter randomized double-blind phase II placebo-controlled trial for assessing effectiveness and safety of Compound A in mild to moderate AD patients Subject (selection criteria): Patients were screened in a period from 42 days before treatment assignment to the assignment based on the following selection criteria. • Patients who were probable AD and are 55 years old or older and 85 years old or younger at the time of obtaining consent of screening. • Patients with an MMSE score of 12 to 22 at the time of screening • Patients with a Modified Hachinski Ischemia Scale score of 4 or less • Patients who have been treated with a donepezil hydrochloride or rivastigmine transdermal system for at least 4 months before the baseline and with a stable dose thereof for 3 months before the baseline. • In the case of patients who have received memantine in addition to being treated with a donepezil hydrochloride or rivastigmine transdermal system, patients who have been treated with memantine for at least 4 months before the baseline and with a stable dose thereof for 3 months before the baseline. • Patients whose brain MRI or CT results match AD at the time of screening • Organization of groups: Patients matched (484 patients) were randomly divided into the following 3 groups and the trial was started. • (1) High dose group: 224 mg of a test compound (160 mg in terms of Compound A) was orally administered once a day for 4 weeks and then 448 mg of a test compound (320 mg in terms of Compound A) was orally administered once a day for 48 weeks (158 patients) • (2) Low dose group: 224 mg of a test compound (160 mg in terms of Compound A) was orally administered once a day for 52 weeks (166 patients) • (3) Placebo group: placebo was orally administered once a day for 52 weeks (158 patients) Method of assessment: Cerebrospinal Fluid Biomarker\n(§2) Cerebrospinal fluid was collected by lumber puncture from subjects at baseline (within 2 weeks before the first day of administration of investigational drug) and after 52 weeks (within 2 weeks before week 52), and divided into 9-ml aliquots in polyethylene tubes and stored at −80° C. The AP-42 value in the cerebrospinal fluid was measured by sandwich ELIZA which has been designed for measurement of Aβ including 1 amino acid and 42 amino acids.\n(§3) Change in cerebrospinal fluid (CSF) biomarkers at week 52 from the baseline was compared by analysis of covariance between a high dose group and a placebo group, and between a low dose group and the placebo group. For models, the baseline of cerebrospinal fluid (CSF) biomarkers was included as a covariate and the significance level was 5%."}, "[2]": {"tested_on": "Aβ", "assay": "Phase II placebo-controlled trial, concentration of Aβ in the cerebrospinal fluid (overall statement)", "conditions": "Compound A groups (high and low dose) vs placebo group", "experimental": "[…]\nas §2, with “acids. […]” for “acids.”"}, "[3]": {"tested_on": "Aβ-40", "assay": "Phase II placebo-controlled trial, cerebrospinal fluid biomarker Aβ-40", "conditions": "for Change in Aβ-40 in CSF at week 52, difference from placebo group: analysis of covariance", "text": "[The procedure below names another target; the source lists this target under the same test.] as §1, §2, §3"}, "[4]": {"tested_on": "Aβ-42", "assay": "Phase II placebo-controlled trial, cerebrospinal fluid biomarker Aβ-42", "conditions": "for Change in Aβ-42 in CSF at week 52, difference from placebo group: analysis of covariance", "text": "as §1, §2, §3"}, "[5]": {"conditions": "High dose group (160 mg then 320 mg in terms of Compound A, oral, once a day)"}, "[6]": {"conditions": "High dose group: 160 mg in terms of Compound A orally once a day for 4 weeks, then 320 mg for 48 weeks, 24 cases"}, "[7]": {"conditions": "Low dose group (160 mg in terms of Compound A, oral, once a day, 52 weeks)"}, "[8]": {"conditions": "Low dose group: 160 mg in terms of Compound A orally once a day for 52 weeks, 17 cases"}}, "data": [{"compound": "OC1CN(CCCOCCc2ccc3sccc3c2)C1", "note": "[Compound A, 1-(3-(2-(1-benzothiophen-5-yl)ethoxy)propyl)azetidin-3-ol]", "values": [{"measurement": "Change in Aβ-38 in CSF at week 52, difference from placebo group", "setting": "[1]; [5]", "result": 525.66, "unit": "pg/mL"}, {"measurement": "Change in concentration of Aβ-38 in CSF at week 52 from the baseline, least square means", "setting": "[1]; [6]", "result": 178.64, "unit": "pg/mL"}, {"measurement": "Change in Aβ-38 in CSF at week 52, difference from placebo group", "setting": "[1]; [7]", "result": 127.43, "unit": "pg/mL"}, {"measurement": "Change in concentration of Aβ-38 in CSF at week 52 from the baseline, least square means", "setting": "[1]; [8]", "result": -219.58, "unit": "pg/mL"}, {"measurement": "Change in the concentration of Aβ in the cerebrospinal fluid at week 52 from the baseline, compared to the placebo group", "setting": "[2]", "result": "tended to be increased in a dose dependent manner"}, {"measurement": "Change in Aβ-40 in CSF at week 52, difference from placebo group", "setting": "[3]; [5]", "result": 1206.87, "unit": "pg/mL"}, {"measurement": "Change in concentration of Aβ-40 in CSF at week 52 from the baseline, least square means", "setting": "[3]; [6]", "result": 290.84, "unit": "pg/mL"}, {"measurement": "Change in Aβ-40 in CSF at week 52, difference from placebo group", "setting": "[3]; [7]", "result": 75.71, "unit": "pg/mL"}, {"measurement": "Change in concentration of Aβ-40 in CSF at week 52 from the baseline, least square means", "setting": "[3]; [8]", "result": -840.32, "unit": "pg/mL"}, {"measurement": "Change in Aβ-42 in CSF at week 52, difference from placebo group", "setting": "[4]; [5]", "result": 32.90, "unit": "pg/mL"}, {"measurement": "Change in concentration of Aβ-42 in CSF at week 52 from the baseline, least square means", "setting": "[4]; [6]", "result": 11.55, "unit": "pg/mL"}, {"measurement": "Change in Aβ-42 in CSF at week 52, difference from placebo group", "setting": "[4]; [7]", "result": 11.65, "unit": "pg/mL"}, {"measurement": "Change in concentration of Aβ-42 in CSF at week 52 from the baseline, least square means", "setting": "[4]; [8]", "result": -9.70, "unit": "pg/mL"}]}]}
